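Results reflect a 48-hour exposure of cells in 96-well plates to compound at five concentrations. Abbreviation: GI50, concentration required for 50% inhibition of growth. TGI marks complete inhibition of growth.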
Assays:
Test in all cases: inhibition of tumour cell growth, NCI panel, 48 h; in the data active = GI50 below about 0.43 µM; inactive = the rest
[1] = test system: SF-295 CNS
[2] = test system: SK-MEL-2 melanoma
[3] = test system: 786-0 renal
[4] = test system: T-47D breast
[5] = test system: K-562 leukemia
[6] = test system: ACHN renal
[7] = test system: RPMI-8226 leukemia
[8] = test system: UO-31 renal
[9] = test system: NCI/ADR-RES ovarian
[10] = test system: SNB-75 CNS
[11] = test system: OVCAR-3 ovarian
[12] = test system: MCF7 breast
[13] = test system: MALME-3M melanoma
[14] = test system: SR leukemia
[15] = test system: MOLT-4 leukemia
[16] = test system: PC-3 prostate
[17] = test system: NCI-H23 lung
[18] = test system: EKVX NSCLC
[19] = test system: M14 melanoma
[20] = test system: HOP-92 NSCLC
[21] = test system: SK-MEL-28 melanoma
[22] = test system: SF-268 CNS
[23] = test system: HL-60(TB) leukemia
[24] = test system: RXF 393 renal
[25] = test system: U251 CNS
[26] = test system: CAKI-1 renal
[27] = test system: A549 NSCLC
[28] = test system: HCC-2998 colon
[29] = test system: LOX IMVI melanoma
[30] = test system: SF-539 CNS
[31] = test system: CCRF-CEM leukemia
[32] = test system: KM12 colon
[33] = test system: HCT-15 colon
[34] = test system: SW-620 colon
[35] = test system: OVCAR-5 ovarian
[36] = test system: A498 renal
[37] = test system: TK-10 renal
[38] = test system: MDA-MB-435
[39] = test system: IGROV1 ovarian
[40] = test system: HOP-62 NSCLC
[41] = test system: DU-145 prostate
[42] = test system: NCI-H522 lung
[43] = test system: UACC-62 melanoma
[44] = test system: OVCAR-8 ovarian
[45] = test system: NCI-H226 lung
[46] = test system: SNB-19 CNS
[47] = test system: SK-MEL-5 melanoma
[48] = test system: SK-OV-3 ovarian
[49] = test system: HCT-116 colon
[50] = test system: SN12C renal
[51] = test system: MDA-MB-231 breast
[52] = test system: NCI-H460 lung
[53] = test system: HS 578T breast
[54] = test system: BT-549 breast
[55] = test system: COLO 205 colon
[56] = test system: OVCAR-4 ovarian
[57] = test system: HT29 colon
[58] = test system: UACC-257 melanoma

COc1ccc([C@H]2C(=O)N(c3cc(OC)c(OC)c(OC)c3)[C@@H]2c2ccc(OC)c(O)c2)cc1
0.0491 µM: TGI [42]
72.2 µM: TGI [17]
38.2 µM: TGI [8]
0.0429 µM: TGI [47]
0.083 µM: TGI [55]
26.7 µM: TGI [43]
3.83 µM: TGI [54]
> 100 µM: TGI [2] | TGI [3] | TGI [4] | TGI [5] | TGI [10] | TGI [11] | TGI [12] | TGI [14] | TGI [15] | TGI [16] | TGI [18] | TGI [21] | TGI [22] | TGI [25] | TGI [26] | TGI [27] | TGI [31] | TGI [32] | TGI [33] | TGI [34] | TGI [35] | TGI [36] | TGI [37] | TGI [39] | TGI [40] | TGI [41] | TGI [44] | TGI [46] | TGI [48] | TGI [49] | TGI [50] | TGI [51] | TGI [53] | TGI [56]
41.2 µM: TGI [24]
78.3 µM: TGI [20]
82.1 µM: TGI [29]
inactive: GI50 [4] 27.3 µM | GI50 [10] 0.861 µM | GI50 [20] 1.19 µM | GI50 [21] 4.03 µM | GI50 [22] 1.41 µM | GI50 [36] 33.6 µM | GI50 [37] 16.2 µM | GI50 [56] 17.1 µM
17.5 µM: TGI [19]
0.0898 µM: TGI [45]
0.0513 µM: TGI [9]
0.0527 µM: TGI [23]
69.9 µM: TGI [6]
24.8 µM: TGI [52]
34.5 µM: TGI [13]
15.5 µM: TGI [28]
22.7 µM: TGI [1]
1.85 µM: TGI [38]
0.0537 µM: TGI [30]
active: GI50 [1] 0.0298 µM | GI50 [2] 0.0502 µM | GI50 [3] 0.0324 µM | GI50 [5] 0.0276 µM | GI50 [6] 0.0535 µM | GI50 [7] 0.0387 µM | GI50 [8] 0.072 µM | GI50 [9] 0.0195 µM | GI50 [11] 0.0635 µM | GI50 [12] 0.0327 µM | GI50 [13] 0.0357 µM | GI50 [14] 0.0258 µM | GI50 [15] 0.0464 µM | GI50 [16] 0.05 µM | GI50 [17] 0.0378 µM | GI50 [18] 0.0401 µM | GI50 [19] 0.0341 µM | GI50 [23] 0.0216 µM | GI50 [24] 0.0467 µM | GI50 [25] 0.0322 µM | GI50 [26] 0.049 µM | GI50 [27] 0.0401 µM | GI50 [28] 0.0361 µM | GI50 [29] 0.0261 µM | GI50 [30] 0.0204 µM | GI50 [31] 0.0308 µM | GI50 [32] 0.0445 µM | GI50 [33] 0.0305 µM | GI50 [34] 0.0516 µM | GI50 [35] 0.0459 µM | GI50 [38] 0.0297 µM | GI50 [39] 0.0424 µM | GI50 [40] 0.0562 µM | GI50 [41] 0.0527 µM | GI50 [42] 0.0124 µM | GI50 [43] 0.0448 µM | GI50 [44] 0.0299 µM | GI50 [45] 0.0274 µM | GI50 [46] 0.0454 µM | GI50 [47] 0.0202 µM | GI50 [48] 0.0422 µM | GI50 [49] 0.0292 µM | GI50 [50] 0.0435 µM | GI50 [51] 0.0318 µM | GI50 [52] 0.0365 µM | GI50 [53] 0.0422 µM | GI50 [54] 0.058 µM | GI50 [55] 0.0303 µM
17.3 µM: TGI [7]

CS(=O)(=O)c1nccc(-c2c(-c3ccc(F)c(OCCc4ccc(F)cc4)c3)nc3sccn23)n1
25.4 µM: TGI [18] | TGI [58]
16.3 µM: TGI [52]
35.5 µM: TGI [43]
26.4 µM: TGI [26]
34.5 µM: TGI [15]
35 µM: TGI [45]
18.8 µM: TGI [20]
9.31 µM: TGI [23]
30 µM: TGI [3] | TGI [30]
43.8 µM: TGI [53]
24.5 µM: TGI [21]
53.8 µM: TGI [5]
7.57 µM: TGI [4]
24.6 µM: TGI [39]
4.31 µM: TGI [12]
30.6 µM: TGI [57] | TGI [34] | TGI [50]
26.5 µM: TGI [48]
29.2 µM: TGI [24]
30.7 µM: TGI [2]
20.8 µM: TGI [11]
25.5 µM: TGI [49]
37.8 µM: TGI [51]
23.6 µM: TGI [10]
31.2 µM: TGI [40]
27.6 µM: TGI [29] | TGI [54]
31.7 µM: TGI [13]
33.2 µM: TGI [31] | TGI [44]
30.5 µM: TGI [27]
27.8 µM: TGI [33]
28.3 µM: TGI [37]
39 µM: TGI [9]
21.8 µM: TGI [8]
29.3 µM: TGI [38]
28.5 µM: TGI [32]
30.9 µM: TGI [19]
28.1 µM: TGI [7] | TGI [42]
29.7 µM: TGI [25]
30.4 µM: TGI [35] | TGI [56]
7.33 µM: TGI [6]
11.3 µM: TGI [28]
inactive: GI50 [1] 17 µM | GI50 [2] 15.7 µM | GI50 [3] 14.9 µM | GI50 [4] 2.7 µM | GI50 [5] 15 µM | GI50 [6] 2.74 µM | GI50 [7] 4.34 µM | GI50 [8] 10.2 µM | GI50 [9] 17.4 µM | GI50 [10] 11.4 µM | GI50 [11] 7.11 µM | GI50 [12] 1.85 µM | GI50 [13] 17.2 µM | GI50 [14] 12.3 µM | GI50 [15] 14.3 µM | GI50 [16] 10.9 µM | GI50 [18] 12.7 µM | GI50 [19] 16.6 µM | GI50 [20] 4.7 µM | GI50 [21] 11.9 µM | GI50 [57] 15.2 µM | GI50 [22] 16.4 µM | GI50 [23] 3.23 µM | GI50 [24] 15 µM | GI50 [25] 15.9 µM | GI50 [26] 13.5 µM | GI50 [58] 12.3 µM | GI50 [27] 16.1 µM | GI50 [28] 3.48 µM | GI50 [29] 13 µM | GI50 [30] 15.5 µM | GI50 [31] 14.2 µM | GI50 [32] 13 µM | GI50 [33] 12.5 µM | GI50 [34] 15.2 µM | GI50 [35] 15.5 µM | GI50 [36] 9.97 µM | GI50 [37] 15.1 µM | GI50 [38] 15.9 µM | GI50 [39] 5.9 µM | GI50 [40] 15.3 µM | GI50 [41] 2.07 µM | GI50 [42] 11.7 µM | GI50 [43] 15.4 µM | GI50 [44] 15.5 µM | GI50 [45] 14.5 µM | GI50 [46] 15.2 µM | GI50 [47] 16.5 µM | GI50 [48] 13.5 µM | GI50 [49] 12.9 µM | GI50 [50] 13.8 µM | GI50 [51] 17 µM | GI50 [52] 4.25 µM | GI50 [53] 12.5 µM | GI50 [54] 14 µM | GI50 [55] 17.1 µM | GI50 [56] 14.9 µM
33.9 µM: TGI [46]
32.5 µM: TGI [55]
21.5 µM: TGI [36]
36.9 µM: TGI [14] | TGI [22]
31.6 µM: TGI [1]
4.32 µM: TGI [41]
30.8 µM: TGI [47]
27.2 µM: TGI [16]

Reference: PubChem BioAssay (NCI)
